Results reported in patent US8268840B2, “Pyrimidinyl pyridone inhibitors of kinases” (Roche Palo Alto LLC, priority 2008, dated 2012).

Assays:
[1] = molecular target: Human JNK2α2 (Homo sapiens, UniProt P45984); assay: JNK assay in vitro, phosphorylation of GST-ATF2 (19-96) with [γ-33P] ATP; assay type: biochemical; conditions: 1 nM enzyme, 1 μM ATF2, 8 μM ATP (Km), 30° C. for 30 min, ten concentration curves; read-out: IC50 JNK2
Protocol: (§1) JNK activity was measured by phosphorylation of GST-ATF2 (19-96) with [γ-^33P] ATP. The enzyme reaction was conducted at Km concentrations of ATP and the substrate at final volume of 40 μl in buffer containing 25 mM HEPES, pH 7.5, 2 mM dithiothreitol, 150 mM NaCl, 20 mM MgCl2, 0.001% Tween® 20, 0.1% BSA and 10% DMSO. Human JNK2α2 assay contains 1 nM enzyme, 1 μM ATF2, 8 μM ATP with 1 uCi [γ-^33P] ATP. Human JNK1α1 assay contains 2 nM enzyme, 1 μM ATF2, 6 μM ATP with 1 μCi [γ-^33P] ATP. Human JNK3 (Upstate Biotech #14-501M) assay contains 2 nM enzyme, 1 μM ATF2, 4 μM ATP with 1 μCi [γ-^33P] ATP. The enzyme assay was carried out in the presence or absence of several compound concentrations. JNK and compound were pre-incubated for 10 min., followed by initiation of the enzymatic reaction by adding ATP and the substrate. The reaction mixture was incubated at 30° C. for 30 min. At the end of incubation, the reaction was terminated by transferring 25 μl of the reaction mixture to 150 μl of 10% glutathione Sepharose® slurry (Amersham #27-4574-01) containing 135 mM EDTA. The reaction product was captured on the affinity resin, and washed on a filtration plate (Millipore, MABVNOB50) with phosphate buffered saline for six times to remove free radionucleotide. The incorporation of ^33P into ATF2 was quantified on a microplate scintillation counter (Packard Topcount). Compound inhibition potency on JNK was measured by IC50 value generated from ten concentration inhibition curves fitted into the 3-parameter model: % inhibition=Maximum/(1+(IC50/[Inhibitor])^slope). Data were analyzed on Microsoft Excel for parameter estimation.

[2] = molecular target: Human JNK1α1 (Homo sapiens, UniProt P45983); assay: as above; assay type: biochemical; conditions: 2 nM enzyme, 1 μM ATF2, 6 μM ATP (Km), 30° C. for 30 min, ten concentration curves; read-out: IC50 JNK1
Protocol: as §1

Sequence of Human JNK2α2 (P45984 whole entry): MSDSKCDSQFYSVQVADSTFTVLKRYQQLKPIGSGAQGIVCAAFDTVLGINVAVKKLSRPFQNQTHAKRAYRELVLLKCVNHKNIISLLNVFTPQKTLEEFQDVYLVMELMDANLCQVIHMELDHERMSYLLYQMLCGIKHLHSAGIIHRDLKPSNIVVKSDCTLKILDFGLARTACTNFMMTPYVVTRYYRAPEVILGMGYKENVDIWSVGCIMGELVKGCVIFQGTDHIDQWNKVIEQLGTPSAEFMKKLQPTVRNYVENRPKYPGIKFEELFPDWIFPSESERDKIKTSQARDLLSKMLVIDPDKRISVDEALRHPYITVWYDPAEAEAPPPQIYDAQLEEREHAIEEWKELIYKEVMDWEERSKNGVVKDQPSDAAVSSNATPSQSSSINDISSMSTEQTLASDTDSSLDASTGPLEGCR
Sequence of Human JNK1α1 (P45983 1-384 isoform P45983-2): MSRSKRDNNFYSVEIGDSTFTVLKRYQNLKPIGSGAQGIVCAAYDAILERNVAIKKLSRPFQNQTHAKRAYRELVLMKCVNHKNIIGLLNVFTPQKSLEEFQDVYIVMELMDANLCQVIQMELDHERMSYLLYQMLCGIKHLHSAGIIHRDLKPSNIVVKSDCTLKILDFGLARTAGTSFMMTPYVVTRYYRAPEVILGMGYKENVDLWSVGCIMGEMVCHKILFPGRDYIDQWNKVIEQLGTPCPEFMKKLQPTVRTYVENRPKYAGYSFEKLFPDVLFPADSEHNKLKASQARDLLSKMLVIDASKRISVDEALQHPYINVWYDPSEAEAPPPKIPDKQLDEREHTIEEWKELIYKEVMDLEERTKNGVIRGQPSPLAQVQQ

Compound	melting point	IC50 [1]	IC50 [2]
Cc1c(N)c2cnc(N[C@H]3CC[C@H](C(=O)N4CCCC4)CC3)nc2n(C2CCC2)c1=O [Compound I-9, 5-Amino-8-cyclobutyl-6-methyl-2-[4-(pyrrolidine-1-carbonyl)-cyclohexylamino]-8H-pyrido[2,3-d]pyrimidin-7-one]	276.6 to 278.4 °C	37.7 nM	34.4 nM
Nc1cc(=O)n(C2CCCC2)c2nc(N[C@H]3CC[C@H](O)CC3)ncc12 [Compound I-5, 5-Amino-8-cyclopentyl-2-(4-hydroxy-cyclohexylamino)-8H-pyrido[2,3-d]pyrimidin-7-one]	246.5 to 248 °C	43.9 nM	20.5 nM
Nc1cc(=O)n(C2CCC2)c2nc(NC3CCCCC3)ncc12 [Compound I-3, 5-Amino-8-cyclobutyl-2-cyclohexylamino-8H-pyrido[2,3-d]pyrimidin-7-one]	120 to 121.5 °C	40.3 nM	17.9 nM
Nc1cc(=O)n([C@@H]2CC[C@@H](O)C2)c2nc(NC3CCCCC3)ncc12 (racemic) [Compound I-1, 5-Amino-2-cyclohexylamino-8-((1R,3R)-3-hydroxy-cyclopentyl)-8H-pyrido[2,3-d]pyrimidin-7-one]	169.5 to 170 °C	25.8 nM	11.1 nM
CCn1c(=O)cc(N)c2cnc(NC3CCCCC3)nc21 [Compound I-21, 5-Amino-2-cyclohexylamino-8-ethyl-8H-pyrido[2,3-d]pyrimidin-7-one]	147.7 to 150.1 °C	–	–
Nc1c(F)c(=O)n(C2CCC2)c2nc(NC3CCCCC3)ncc12 [Compound I-4, 5-Amino-8-cyclobutyl-2-cyclohexylamino-6-fluoro-8H-pyrido[2,3-d]pyrimidin-7-one]	286 to 287 °C	–	–
Cc1c(N)c2cnc(N[C@H]3CC[C@H](N(C)S(C)(=O)=O)CC3)nc2n(C2CCC2)c1=O [Compound I-24, N-[4-(5-Amino-8-cyclobutyl-6-methyl-7-oxo-7,8-dihydro-pyrido[2,3-d]pyrimidin-2-ylamino)-cyclohexyl]-N-methyl-methanesulfonamide]	260 to 261 °C	–	–
Nc1c(-c2ccccc2)c(=O)n(C2CCC2)c2nc(NC3CCCCC3)ncc12 [Compound I-31, 5-Amino-8-cyclobutyl-2-cyclohexylamino-6-phenyl-8H-pyrido[2,3-d]pyrimidin-7-one]	160 to 161 °C	–	–
Nc1cc(=O)n(C2CCCCC2)c2nc(NC3CCC(F)(F)CC3)ncc12 [Compound I-57, 5-Amino-8-cyclohexyl-2-(4,4-difluoro-cyclohexylamino)-8H-pyrido[2,3-d]pyrimidin-7-one]	240 to 244.1 °C	–	–
Cc1c(N)c2cnc(NC3CCN(S(C)(=O)=O)CC3)nc2n([C@@H]2CCOC2)c1=O [Compound I-53, 5-Amino-2-(1-methanesulfonyl-piperidin-4-ylamino)-6-methyl-8-(R)-tetrahydro-furan-3-yl-8H-pyrido[2,3-d]pyrimidin-7-one]	> 300 °C	–	–
Nc1cc(=O)n(C2CCCC2)c2nc(N[C@H]3CC[C@H](C(=O)N4CCOCC4)CC3)ncc12 [Compound I-13, 5-Amino-8-cyclopentyl-2-[4-(morpholine-4-carbonyl)-cyclohexylamino]-8H-pyrido[2,3-d]pyrimidin-7-one]	292.5 to 295.3 °C	–	–
Cc1c(N)c2cnc(N[C@H]3CC[C@H](C(C)(C)O)CC3)nc2n(C2CCC2)c1=O [Compound I-20, 5-Amino-8-cyclobutyl-2-[4-(1-hydroxy-1-methyl-ethyl)-cyclohexylamino]-6-methyl-8H-pyrido[2,3-d]pyrimidin-7-one]	223 to 224.8 °C	–	–
CCc1c(N)c2cnc(NC3CCCCC3)nc2n(C2CCCC2)c1=O [Compound I-36, 5-Amino-2-cyclohexylamino-8-cyclopentyl-6-ethyl-8H-pyrido[2,3-d]pyrimidin-7-one]	229.8 to 230.5 °C	–	–
Nc1cc(=O)n(C2CC2)c2nc(N[C@H]3CC[C@H](O)CC3)ncc12 [Compound I-22, 5-Amino-8-cyclopropyl-2-(4-hydroxy-cyclohexylamino)-8H-pyrido[2,3-d]pyrimidin-7-one]	256.3 to 258.7 °C	–	–
CC(=O)N[C@H]1CC[C@H](Nc2ncc3c(N)cc(=O)n([C@@H]4CC[C@@H](O)C4)c3n2)CC1 [Compound I-18, N-{4-[5-Amino-8-((1R,3R)-3-hydroxy-cyclopentyl)-7-oxo-7,8-dihydro-pyrido[2,3-d]pyrimidin-2-ylamino]-cyclohexyl}-acetamide]	210 to 211.5 °C	–	–
CC(=O)c1c(N)c2cnc(NC3CCCCC3)nc2n(C2CCC2)c1=O [Compound I-68, 6-Acetyl-5-amino-8-cyclobutyl-2-cyclohexylamino-8H-pyrido[2,3-d]pyrimidin-7-one]	256 to 257 °C	–	–
Nc1cc(=O)n(Cc2ccccc2)c2nc(NC3CCCCC3)ncc12 [Compound I-66, 5-Amino-8-benzyl-2-cyclohexylamino-8H-pyrido[2,3-d]pyrimidin-7-one]	221.9 to 223.8 °C	–	–
Nc1cc(=O)n(C2CCCCC2)c2nc(N[C@H]3CC[C@H](C(=O)N4CCOCC4)CC3)ncc12 [Compound I-7, 5-Amino-8-cyclohexyl-2-[4-(morpholine-4-carbonyl)-cyclohexylamino]-8H-pyrido[2,3-d]pyrimidin-7-one]	185 to 203 °C	39.7 nM	31.6 nM
Nc1cc(=O)n(Cc2ccccc2)c2nc(NC3CCOCC3)ncc12 [Compound I-69, 5-Amino-8-benzyl-2-(tetrahydro-pyran-4-ylamino)-8H-pyrido[2,3-d]pyrimidin-7-one]	245.6 to 246.8 °C	–	–
CC(=O)N1CCC(Nc2ncc3c(N)cc(=O)n(C4CCCC4)c3n2)CC1 [Compound I-30, 2-(1-Acetyl-piperidin-4-ylamino)-5-amino-8-cyclopentyl-8H-pyrido[2,3-d]pyrimidin-7-one]	282 to 285 °C	–	–
Cc1c(N)c2cnc(N[C@H]3CC[C@H](C(=O)N4CCOCC4)CC3)nc2n(C2CCCC2)c1=O [Compound I-10, 5-Amino-8-cyclopentyl-6-methyl-2-[4-(morpholine-4-carbonyl)-cyclohexylamino]-8H-pyrido[2,3-d]pyrimidin-7-one]	186.8 to 188 °C	–	–
COC(=O)N[C@H]1CC[C@H](Nc2ncc3c(N)cc(=O)n(CCCO)c3n2)CC1 [Compound I-43, {4-[5-Amino-8-(3-hydroxy-propyl)-7-oxo-7,8-dihydro-pyrido[2,3-d]pyrimidin-2-ylamino]-cyclohexyl}-carbamic acid methyl ester]	190 to 191 °C	–	–
Nc1cc(=O)n(C2CCCC2)c2nc(Nc3ccccc3)ncc12 [Compound I-45, 5-Amino-8-cyclopentyl-2-phenylamino-8H-pyrido[2,3-d]pyrimidin-7-one]	128.3 to 130 °C	–	–
CC(C)c1c(N)c2cnc(N[C@H]3CC[C@H](C(=O)N4CCC(O)CC4)CC3)nc2n(C2CCC2)c1=O [Compound I-25, 5-Amino-8-cyclobutyl-2-[4-(4-hydroxy-piperidine-1-carbonyl)-cyclohexylamino]-6-isopropyl-8H-pyrido[2,3-d]pyrimidin-7-one]	170 to 171 °C	–	–
